Test results as given in ChEMBL document CHEMBL6182926, “Design, Synthesis, and Biological Activity Evaluation of Deuterated Diphenyl Azole Alcohol-Based CYP51 Inhibitors” (J Med Chem, 2025).
≈ marks a conversion by molar mass, not a printed value.

How the values were obtained:
[1] = system: Candida albicans; assay: Antifungal activity against Candida albicans SC 5314 assessed as inhibition of visible growth; type: functional
[2] = system: Candida albicans; assay: Antifungal activity against Candida albicans CPCC 400616 assessed as inhibition of visible growth; type: functional
[3] = system: Candida tropicalis; assay: Antifungal activity against Candida tropicalis CGMCC 2.3739 assessed as inhibition of visible growth; type: functional
[4] = system: Candida parapsilosis; assay: Antifungal activity against Candida parapsilosis GIM 2.190 assessed as inhibition of visible growth; type: functional; settings: Lodderomyces parapsilosis
[5] = system: Nakaseomyces glabratus; assay: Antifungal activity against Clinical isolate Candida glabrata assessed as inhibition of visible growth; type: functional
[6] = system: Pichia kudriavzevii; assay: Antifungal activity against Candida krusei AS 2.1045 assessed as inhibition of visible growth; type: functional
[7] = system: Cryptococcus neoformans; assay: Antifungal activity against Cryptococcus neoformans CGMCC 2.3161 assessed as inhibition of visible growth; type: functional
[8] = system: Aspergillus fumigatus; assay: Antifungal activity against Aspergillus fumigatus CGMCC 3.7795 assessed as inhibition of visible growth; type: functional
[9] = Metabolic stability in human liver microsomes assessed as half life by LC-MS/MS analysis; type: ADME, Microsome; settings: liver microsomes
[10] = Metabolic stability in human liver microsomes assessed as compound remaining measured up to 60 mins by LC-MS/MS analysis; type: ADME, Microsome; settings: liver microsomes, read-out: Activity

Structure (SMILES)	MIC80 [1]	MIC80 [2]	MIC80 [3]	MIC80 [4]	MIC80 [5]	MIC80 [6]	MIC80 [7]	MIC80 [8]	half-life [9]	remaining at 1 h [10]
[2H]C([2H])([2H])N(Cc1ccc(-c2ccc(Cl)c(F)c2)cc1)[C@H](C)[C@](O)(Cn1cncn1)c1ccc(F)cc1F	0.006 µg/mL (≈ 0.0119 µM)	0.006 µg/mL (≈ 0.0119 µM)	0.006 µg/mL (≈ 0.0119 µM)	0.006 µg/mL (≈ 0.0119 µM)	0.012 µg/mL (≈ 0.0238 µM)	0.006 µg/mL (≈ 0.0119 µM)	0.006 µg/mL (≈ 0.0119 µM)	0.006 µg/mL (≈ 0.0119 µM)	14.1 min	4.91%
[2H]C([2H])([2H])N(Cc1ccc(-c2ccc(OC(F)(F)F)cc2)nc1)[C@H](C)[C@](O)(Cn1cncn1)c1ccc(F)cc1F	0.006 µg/mL (≈ 0.0112 µM)	0.012 µg/mL (≈ 0.0224 µM)	0.012 µg/mL (≈ 0.0224 µM)	0.006 µg/mL (≈ 0.0112 µM)	0.012 µg/mL (≈ 0.0224 µM)	0.012 µg/mL (≈ 0.0224 µM)	0.012 µg/mL (≈ 0.0224 µM)	0.025 µg/mL (≈ 0.0466 µM)		
[2H]C([2H])([2H])N(Cc1ccc(-c2ccc(Cl)cc2)cn1)[C@H](C)[C@](O)(Cn1cncn1)c1ccc(F)cc1F	0.006 µg/mL (≈ 0.0123 µM)	0.006 µg/mL (≈ 0.0123 µM)	0.006 µg/mL (≈ 0.0123 µM)	0.006 µg/mL (≈ 0.0123 µM)	0.025 µg/mL (≈ 0.0513 µM)	0.012 µg/mL (≈ 0.0246 µM)	0.012 µg/mL (≈ 0.0246 µM)	0.05 µg/mL (≈ 0.103 µM)		
[2H]C([2H])([2H])N(Cc1ccc(-c2ccc(Cl)cc2)c(F)c1)[C@H](C)[C@](O)(Cn1cncn1)c1ccc(F)cc1F	0.006 µg/mL (≈ 0.0119 µM)	0.006 µg/mL (≈ 0.0119 µM)	0.006 µg/mL (≈ 0.0119 µM)	0.006 µg/mL (≈ 0.0119 µM)	0.025 µg/mL (≈ 0.0496 µM)	0.012 µg/mL (≈ 0.0238 µM)	0.012 µg/mL (≈ 0.0238 µM)	0.025 µg/mL (≈ 0.0496 µM)		
CN(Cc1ccc(-c2ccc(Cl)cc2)s1)CC(O)(Cn1cncn1)c1ccc(F)cc1F (stereo not given)	0.006 µg/mL (≈ 0.0126 µM)	0.012 µg/mL (≈ 0.0253 µM)	0.006 µg/mL (≈ 0.0126 µM)	0.006 µg/mL (≈ 0.0126 µM)	0.2 µg/mL (≈ 0.421 µM)	0.05 µg/mL (≈ 0.105 µM)	0.1 µg/mL (≈ 0.211 µM)			
[2H]C([2H])([2H])N(Cc1ccc(-c2ccc(C(F)(F)F)cc2)cc1)[C@H](C)[C@](O)(Cn1cncn1)c1ccc(F)cc1F	0.006 µg/mL (≈ 0.0115 µM)	0.006 µg/mL (≈ 0.0115 µM)	0.006 µg/mL (≈ 0.0115 µM)	0.006 µg/mL (≈ 0.0115 µM)	0.012 µg/mL (≈ 0.0231 µM)	0.012 µg/mL (≈ 0.0231 µM)	0.012 µg/mL (≈ 0.0231 µM)	0.025 µg/mL (≈ 0.0481 µM)	35.1 min	29%
[2H]C([2H])([2H])N(Cc1ccc(-c2ccc(Cl)cc2)cc1)[C@H](C)[C@](O)(Cn1cncn1)c1ccc(F)cc1F	0.006 µg/mL (≈ 0.0123 µM)	0.006 µg/mL (≈ 0.0123 µM)	0.006 µg/mL (≈ 0.0123 µM)	0.006 µg/mL (≈ 0.0123 µM)	0.012 µg/mL (≈ 0.0247 µM)	0.012 µg/mL (≈ 0.0247 µM)	0.006 µg/mL (≈ 0.0123 µM)	0.025 µg/mL (≈ 0.0514 µM)		
[2H]C([2H])([2H])N(Cc1ccc(-c2ccc(Cl)cc2F)cc1F)[C@H](C)[C@](O)(Cn1cncn1)c1ccc(F)cc1F	0.012 µg/mL (≈ 0.023 µM)	0.012 µg/mL (≈ 0.023 µM)	0.012 µg/mL (≈ 0.023 µM)	0.012 µg/mL (≈ 0.023 µM)	0.025 µg/mL (≈ 0.0479 µM)	0.05 µg/mL (≈ 0.0958 µM)	0.025 µg/mL (≈ 0.0479 µM)	0.05 µg/mL (≈ 0.0958 µM)		
CN(Cc1ccc(-c2ccc(C(F)(F)F)cc2)o1)CC(O)(Cn1cncn1)c1ccc(F)cc1F (stereo not given)	0.025 µg/mL (≈ 0.0508 µM)	0.025 µg/mL (≈ 0.0508 µM)	0.012 µg/mL (≈ 0.0244 µM)	0.05 µg/mL (≈ 0.102 µM)	0.2 µg/mL (≈ 0.406 µM)	0.2 µg/mL (≈ 0.406 µM)	0.4 µg/mL (≈ 0.812 µM)			
CN(Cc1ccc(-c2ccc(Cl)cc2)nc1)CC(O)(Cn1cncn1)c1ccc(F)cc1F (stereo not given)	0.012 µg/mL (≈ 0.0255 µM)	0.012 µg/mL (≈ 0.0255 µM)	0.012 µg/mL (≈ 0.0255 µM)	0.006 µg/mL (≈ 0.0128 µM)	0.1 µg/mL (≈ 0.213 µM)	0.025 µg/mL (≈ 0.0532 µM)	0.05 µg/mL (≈ 0.106 µM)			
CN(Cc1ccc(-c2ccccc2F)cn1)CC(O)(Cn1cncn1)c1ccc(F)cc1F (stereo not given)	0.012 µg/mL (≈ 0.0265 µM)	0.025 µg/mL (≈ 0.0551 µM)	0.012 µg/mL (≈ 0.0265 µM)	0.012 µg/mL (≈ 0.0265 µM)	0.8 µg/mL (≈ 1.76 µM)	0.4 µg/mL (≈ 0.882 µM)	0.1 µg/mL (≈ 0.221 µM)			
CC(C)c1ccc(-c2ccc(CN(C)CC(O)(Cn3cncn3)c3ccc(F)cc3F)nc2)cc1 (stereo not given)	0.012 µg/mL (≈ 0.0251 µM)	0.012 µg/mL (≈ 0.0251 µM)	0.012 µg/mL (≈ 0.0251 µM)	0.012 µg/mL (≈ 0.0251 µM)	0.2 µg/mL (≈ 0.419 µM)	0.1 µg/mL (≈ 0.209 µM)	0.025 µg/mL (≈ 0.0523 µM)			
